What was measured:
[1] = target: Maltase-glucoamylase (Homo sapiens) (UniProt O43451); settings: 1000 uM
[2] = target: T1, Alpha-galactosidase C (Aspergillus niger) (UniProt Q9UUZ4); test: Percent inhibition of alpha-galactosidase of Aspergillus niger at 1000 uM
T1 sequence (whole entry): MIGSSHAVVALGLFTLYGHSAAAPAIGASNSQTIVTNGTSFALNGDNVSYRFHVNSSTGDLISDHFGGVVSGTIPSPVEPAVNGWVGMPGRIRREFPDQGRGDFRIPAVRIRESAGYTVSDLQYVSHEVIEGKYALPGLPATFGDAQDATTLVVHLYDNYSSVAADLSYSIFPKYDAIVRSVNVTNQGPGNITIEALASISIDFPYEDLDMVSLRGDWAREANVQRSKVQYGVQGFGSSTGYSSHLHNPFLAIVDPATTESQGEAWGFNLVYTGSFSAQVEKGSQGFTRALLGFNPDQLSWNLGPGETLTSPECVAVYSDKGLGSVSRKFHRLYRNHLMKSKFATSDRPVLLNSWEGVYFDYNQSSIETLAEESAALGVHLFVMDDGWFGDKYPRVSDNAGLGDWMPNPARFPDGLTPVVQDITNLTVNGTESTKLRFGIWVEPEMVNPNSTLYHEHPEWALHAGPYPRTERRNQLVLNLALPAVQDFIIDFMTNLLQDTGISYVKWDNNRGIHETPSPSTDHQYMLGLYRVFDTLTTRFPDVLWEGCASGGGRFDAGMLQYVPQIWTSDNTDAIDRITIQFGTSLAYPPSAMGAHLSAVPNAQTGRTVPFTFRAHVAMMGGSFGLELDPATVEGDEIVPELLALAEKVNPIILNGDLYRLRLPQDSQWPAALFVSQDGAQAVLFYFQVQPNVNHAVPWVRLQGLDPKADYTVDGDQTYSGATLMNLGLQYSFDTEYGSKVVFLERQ

[3] = target: T2, Beta-galactosidase (Bos taurus) (UniProt Q58D55); test: Percent inhibition of beta-galactosidase of bovine liver at 1000 uM
T2 sequence (whole entry): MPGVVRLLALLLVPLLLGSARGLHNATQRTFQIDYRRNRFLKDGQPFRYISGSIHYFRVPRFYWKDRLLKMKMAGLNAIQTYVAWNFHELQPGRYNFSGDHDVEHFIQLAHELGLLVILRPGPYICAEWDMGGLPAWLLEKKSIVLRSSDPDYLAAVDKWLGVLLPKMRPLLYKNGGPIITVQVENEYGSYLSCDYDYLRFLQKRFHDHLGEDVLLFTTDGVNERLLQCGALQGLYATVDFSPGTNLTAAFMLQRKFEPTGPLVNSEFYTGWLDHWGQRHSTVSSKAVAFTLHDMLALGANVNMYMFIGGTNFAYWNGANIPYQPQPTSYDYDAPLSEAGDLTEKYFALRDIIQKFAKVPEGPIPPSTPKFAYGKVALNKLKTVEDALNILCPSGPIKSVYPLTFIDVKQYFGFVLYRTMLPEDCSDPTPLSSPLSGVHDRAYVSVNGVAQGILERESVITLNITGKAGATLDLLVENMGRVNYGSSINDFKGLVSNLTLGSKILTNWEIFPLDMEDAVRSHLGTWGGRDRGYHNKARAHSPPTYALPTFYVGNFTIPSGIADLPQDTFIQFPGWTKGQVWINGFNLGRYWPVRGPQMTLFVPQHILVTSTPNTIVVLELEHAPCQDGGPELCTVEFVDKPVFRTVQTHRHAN

[4] = target: T3, Cytosolic beta-glucosidase (Homo sapiens) (UniProt Q9H227); settings: 1000 uM
T3 sequence (whole entry): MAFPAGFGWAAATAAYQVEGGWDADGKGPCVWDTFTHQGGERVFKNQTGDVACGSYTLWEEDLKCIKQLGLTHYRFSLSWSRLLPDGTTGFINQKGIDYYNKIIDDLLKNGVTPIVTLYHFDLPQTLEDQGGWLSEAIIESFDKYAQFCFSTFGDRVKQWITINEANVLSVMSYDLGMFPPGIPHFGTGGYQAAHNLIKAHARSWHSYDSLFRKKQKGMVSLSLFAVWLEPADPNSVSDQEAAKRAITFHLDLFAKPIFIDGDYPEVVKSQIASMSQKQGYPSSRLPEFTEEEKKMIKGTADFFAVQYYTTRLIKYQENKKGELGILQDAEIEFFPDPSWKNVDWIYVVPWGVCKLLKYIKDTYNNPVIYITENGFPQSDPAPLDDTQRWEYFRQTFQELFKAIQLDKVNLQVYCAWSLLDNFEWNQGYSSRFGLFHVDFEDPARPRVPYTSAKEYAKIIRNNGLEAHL

[5] = target: T4, Beta-mannosidase (Homo sapiens) (UniProt O00462); test: Percent inhibition of human beta-mannosidase at 1000 uM
T4 sequence (whole entry): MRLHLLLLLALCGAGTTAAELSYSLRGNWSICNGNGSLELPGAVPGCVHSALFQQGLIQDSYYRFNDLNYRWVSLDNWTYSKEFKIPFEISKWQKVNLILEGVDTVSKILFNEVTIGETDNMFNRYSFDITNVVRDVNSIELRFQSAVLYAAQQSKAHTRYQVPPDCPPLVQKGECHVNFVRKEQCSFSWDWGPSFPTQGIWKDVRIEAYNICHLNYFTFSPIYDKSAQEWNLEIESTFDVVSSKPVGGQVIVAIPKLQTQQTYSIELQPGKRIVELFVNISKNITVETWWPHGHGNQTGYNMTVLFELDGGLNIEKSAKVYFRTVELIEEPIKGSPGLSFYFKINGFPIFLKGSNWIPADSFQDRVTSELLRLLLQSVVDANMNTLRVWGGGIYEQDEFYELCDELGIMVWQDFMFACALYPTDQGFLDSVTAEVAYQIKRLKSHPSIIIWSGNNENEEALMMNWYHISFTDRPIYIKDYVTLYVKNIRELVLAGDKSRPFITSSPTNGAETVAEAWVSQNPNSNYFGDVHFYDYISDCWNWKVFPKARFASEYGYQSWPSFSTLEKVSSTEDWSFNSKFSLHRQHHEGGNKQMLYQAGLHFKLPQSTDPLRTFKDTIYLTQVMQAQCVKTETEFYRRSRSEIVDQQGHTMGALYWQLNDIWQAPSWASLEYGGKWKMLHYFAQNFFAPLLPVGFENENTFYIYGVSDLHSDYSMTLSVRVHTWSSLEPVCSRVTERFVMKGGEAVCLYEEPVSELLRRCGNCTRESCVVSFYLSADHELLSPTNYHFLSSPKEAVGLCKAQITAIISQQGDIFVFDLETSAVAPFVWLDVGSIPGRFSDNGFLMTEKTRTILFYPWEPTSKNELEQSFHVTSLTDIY

Measured: inhibition

Sequence of Maltase-glucoamylase (Homo sapiens) (O43451 whole entry, looked up): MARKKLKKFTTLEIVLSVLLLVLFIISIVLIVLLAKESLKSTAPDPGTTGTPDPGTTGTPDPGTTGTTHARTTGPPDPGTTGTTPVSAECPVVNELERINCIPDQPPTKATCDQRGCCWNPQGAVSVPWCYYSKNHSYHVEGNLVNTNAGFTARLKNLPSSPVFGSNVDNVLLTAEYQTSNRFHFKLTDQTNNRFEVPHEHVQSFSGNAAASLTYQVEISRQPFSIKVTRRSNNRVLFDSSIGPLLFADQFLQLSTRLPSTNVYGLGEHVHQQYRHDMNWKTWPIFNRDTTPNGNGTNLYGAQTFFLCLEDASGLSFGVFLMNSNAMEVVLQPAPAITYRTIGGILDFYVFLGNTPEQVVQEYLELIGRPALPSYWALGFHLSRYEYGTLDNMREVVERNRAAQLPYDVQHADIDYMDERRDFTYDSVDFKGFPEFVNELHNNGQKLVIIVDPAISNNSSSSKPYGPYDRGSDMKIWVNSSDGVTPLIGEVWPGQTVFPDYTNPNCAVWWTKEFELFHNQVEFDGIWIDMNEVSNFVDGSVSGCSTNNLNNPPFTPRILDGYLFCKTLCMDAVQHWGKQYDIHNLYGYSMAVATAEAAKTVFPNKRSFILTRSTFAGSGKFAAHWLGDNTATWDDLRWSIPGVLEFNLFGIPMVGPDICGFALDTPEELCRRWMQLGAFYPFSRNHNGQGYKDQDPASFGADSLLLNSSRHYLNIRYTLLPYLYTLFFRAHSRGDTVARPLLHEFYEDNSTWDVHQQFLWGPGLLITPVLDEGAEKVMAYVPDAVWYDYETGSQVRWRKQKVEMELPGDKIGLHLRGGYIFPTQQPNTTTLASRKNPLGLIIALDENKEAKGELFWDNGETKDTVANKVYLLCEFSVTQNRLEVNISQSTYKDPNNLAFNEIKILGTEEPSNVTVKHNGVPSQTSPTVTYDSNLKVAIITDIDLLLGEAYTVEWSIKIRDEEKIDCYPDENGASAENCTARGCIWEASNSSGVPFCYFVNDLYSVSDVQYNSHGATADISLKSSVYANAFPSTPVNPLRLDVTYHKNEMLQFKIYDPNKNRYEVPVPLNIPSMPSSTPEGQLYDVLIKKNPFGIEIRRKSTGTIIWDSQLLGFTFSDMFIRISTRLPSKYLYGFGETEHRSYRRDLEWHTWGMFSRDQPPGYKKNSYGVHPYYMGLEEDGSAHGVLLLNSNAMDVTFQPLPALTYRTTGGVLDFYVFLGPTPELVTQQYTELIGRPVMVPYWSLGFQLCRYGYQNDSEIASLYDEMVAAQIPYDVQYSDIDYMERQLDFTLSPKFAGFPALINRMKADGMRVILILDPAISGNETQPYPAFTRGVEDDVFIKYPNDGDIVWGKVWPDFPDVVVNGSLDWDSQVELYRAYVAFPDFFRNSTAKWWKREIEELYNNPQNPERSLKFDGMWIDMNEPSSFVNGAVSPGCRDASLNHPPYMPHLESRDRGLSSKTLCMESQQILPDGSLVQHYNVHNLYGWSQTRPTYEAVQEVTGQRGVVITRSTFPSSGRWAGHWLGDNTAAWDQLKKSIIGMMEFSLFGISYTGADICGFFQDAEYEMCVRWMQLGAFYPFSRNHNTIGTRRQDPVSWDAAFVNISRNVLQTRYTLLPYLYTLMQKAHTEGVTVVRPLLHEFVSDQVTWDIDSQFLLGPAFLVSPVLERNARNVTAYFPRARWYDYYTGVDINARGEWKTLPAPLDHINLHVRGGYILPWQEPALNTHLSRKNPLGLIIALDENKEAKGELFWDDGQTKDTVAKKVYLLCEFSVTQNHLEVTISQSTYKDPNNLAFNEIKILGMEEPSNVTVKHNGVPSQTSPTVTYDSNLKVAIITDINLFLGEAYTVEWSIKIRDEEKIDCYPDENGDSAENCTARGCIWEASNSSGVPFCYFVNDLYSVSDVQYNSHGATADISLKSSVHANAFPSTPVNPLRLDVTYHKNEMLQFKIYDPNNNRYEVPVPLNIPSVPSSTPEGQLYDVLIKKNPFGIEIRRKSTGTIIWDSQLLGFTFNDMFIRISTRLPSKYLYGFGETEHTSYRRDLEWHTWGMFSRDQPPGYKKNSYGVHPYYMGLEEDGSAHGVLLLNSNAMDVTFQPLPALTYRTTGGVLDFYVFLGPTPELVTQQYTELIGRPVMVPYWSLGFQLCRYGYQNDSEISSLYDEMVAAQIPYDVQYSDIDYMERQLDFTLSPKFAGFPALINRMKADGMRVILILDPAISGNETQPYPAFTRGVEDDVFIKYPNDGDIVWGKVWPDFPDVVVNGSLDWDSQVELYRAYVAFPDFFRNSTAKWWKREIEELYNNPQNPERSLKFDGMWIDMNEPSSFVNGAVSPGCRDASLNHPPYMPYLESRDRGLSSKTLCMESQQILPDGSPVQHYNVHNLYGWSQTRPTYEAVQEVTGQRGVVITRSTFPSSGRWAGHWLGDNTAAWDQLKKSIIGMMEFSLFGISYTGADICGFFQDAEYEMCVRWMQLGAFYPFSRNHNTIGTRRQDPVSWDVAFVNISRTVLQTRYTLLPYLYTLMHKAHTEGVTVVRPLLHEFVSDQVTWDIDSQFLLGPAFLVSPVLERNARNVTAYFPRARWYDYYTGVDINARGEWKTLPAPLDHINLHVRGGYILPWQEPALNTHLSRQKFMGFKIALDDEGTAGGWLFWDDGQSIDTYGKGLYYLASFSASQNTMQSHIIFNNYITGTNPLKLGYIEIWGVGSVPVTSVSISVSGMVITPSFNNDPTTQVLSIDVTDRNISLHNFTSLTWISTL

OC[C@H]1NC[C@H](O)[C@H](O)[C@H]1O
< 50%: [1] | [2] | [3] | [4] | [5]

OC[C@@H]1NC[C@@H](O)[C@@H](O)[C@H]1O
< 50%: [1] | [2] | [3] | [4] | [5]

OC[C@H]1NC[C@H](O)[C@@H](O)[C@H]1O
< 50%: [1] | [3] | [4] | [5]

OC[C@H]1NC[C@H](O)[C@@H](O)[C@@H]1O [DUVOGLUSTAT]
< 50%: [2] | [5]

OC[C@H]1NC[C@@H](O)[C@H](O)[C@H]1O
< 50%: [1] | [2] | [5]

OC[C@@H]1NC[C@H](O)[C@@H](O)[C@@H]1O
< 50%: [1] | [2] | [3] | [4] | [5]

OC[C@@H]1NC[C@@H](O)[C@@H](O)[C@@H]1O
< 50%: [1] | [2] | [3] | [4] | [5]

OC[C@H]1NC[C@@H](O)[C@@H](O)[C@@H]1O [DEOXYMANNOJIRIMYCIN]
< 50%: [1] | [2] | [3] | [4] | [5]

OC[C@H]1NC[C@H](O)[C@H](O)[C@@H]1O
< 50%: [1] | [2] | [3] | [4] | [5]

OC[C@@H]1NC[C@@H](O)[C@H](O)[C@H]1O
< 50%: [1] | [2] | [4] | [5]

OC[C@@H]1NC[C@H](O)[C@H](O)[C@H]1O
< 50%: [1] | [2] | [3] | [4] | [5]

OC[C@@H]1NC[C@@H](O)[C@H](O)[C@@H]1O
< 50%: [1] | [2] | [4] | [5]
